Where two headings read alike, the source gives them in different places.
Tests used:
[1] = test system: 2.2.15 cells; assay: HBV cytotoxicity assay, neutral red dye uptake in 2.2.15 cells; type: cell-based; details: Homo sapiens, read-out: IC50 (toxicity, neutral red dye uptake)
Procedure: The toxicity of the test compounds in cultures of 2.2.15 cells, grown to confluence in 96-well flat-bottomed tissue culture plates and treated with compounds as described above, were assayed at four concentrations each in triplicate cultures, in 3 to 10-fold steps. Untreated control cultures were maintained on each plate. On each plate, wells containing no cells were used to correct for light scattering.
Stock solutions of text drugs were prepared in DMSO.

[2] = test system: Hepatitis B Virus (HBV); assay: Inhibition of HBV replication in 2.2.15 cells, extracellular (virion) HBV DNA; details: for EC50 / EC90: Hepatitis B virus; for SI (CC50/EC90), HBV Virion: selective index;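 as to all read-outs here: extracellular virion HBV DNA in culture medium measured by slot blot hybridization with a 32P-labeled HBV probe, quantified against HBV DNA standards, after 9 days of daily dosing, compared with day 0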
[3] = 216 h, read-out: EC50 (50% effective dose), HBV Virion, 2.2.15 cells, extracellular (virion) HBV DNA, 9 days treatment
[4] = 216 h, read-out: EC90 (90% effective dose), HBV Virion, 2.2.15 cells, extracellular (virion) HBV DNA, 9 days treatment
[5] = read-out: EC50, concentration necessary to decrease HBV DNA levels by 50%, 2.2.15 cells, combinations: with respect to RF
[6] = read-out: EC90, concentration necessary to decrease HBV DNA levels by 90%, 2.2.15 cells, combinations: with respect to RF

Which results are given for `Nc1ccn([C@@H]2CS[C@H](CO)O2)c(=O)n1` [Lamivudine (3TC), lamivudine, reference compound]?
IC50 [1]: 1790 µM; EC50 [2, 3]: 0.038 µM; EC90 [2, 4]: 0.16 µM; EC50 [2, 5]: 0.038 µM; EC90 [2, 6]: 0.16 µM; SI (CC50/EC90), HBV Virion [2]: 11200

What does the source list for `Nc1nc2c(ncn2CCC(CO)CO)c(=O)[nH]1` [Penciclovir, penciclovir, reference compound]?
IC50 [1]: 433 µM; EC50 [2, 3]: 0.19 µM; EC90 [2, 4]: 0.92 µM; EC50 [2, 5]: 0.19 µM; EC90 [2, 6]: 0.92 µM; SI (CC50/EC90), HBV Virion [2]: 471

— patent publication US6399654B1, “Biflavanoids and derivatives thereof as antiviral agents” (priority 1995, dated 2002)
